Data taken from US20250059183A1, “PYRIDINE[4,3-D]PYRIMIDINE COMPOUND AS TLR7/8 AGONIST” (SHANGHAI VISONPHARMA CO., LTD., priority 2021, published 2025).

molecular target: T1, human TLR7 (Homo sapiens, UniProt Q9NYK1); assay: HEK-Blue hTLR7 SEAP reporter gene agonist assay; assay type: cell-based; conditions: HEK-Blue hTLR7 cells, 16 to 22 hours incubation
T1 construct: host or cells: HEK-Blue hTLR7 (HEK293-derived reporter cells)
T1 sequence (Q9NYK1 27-1049): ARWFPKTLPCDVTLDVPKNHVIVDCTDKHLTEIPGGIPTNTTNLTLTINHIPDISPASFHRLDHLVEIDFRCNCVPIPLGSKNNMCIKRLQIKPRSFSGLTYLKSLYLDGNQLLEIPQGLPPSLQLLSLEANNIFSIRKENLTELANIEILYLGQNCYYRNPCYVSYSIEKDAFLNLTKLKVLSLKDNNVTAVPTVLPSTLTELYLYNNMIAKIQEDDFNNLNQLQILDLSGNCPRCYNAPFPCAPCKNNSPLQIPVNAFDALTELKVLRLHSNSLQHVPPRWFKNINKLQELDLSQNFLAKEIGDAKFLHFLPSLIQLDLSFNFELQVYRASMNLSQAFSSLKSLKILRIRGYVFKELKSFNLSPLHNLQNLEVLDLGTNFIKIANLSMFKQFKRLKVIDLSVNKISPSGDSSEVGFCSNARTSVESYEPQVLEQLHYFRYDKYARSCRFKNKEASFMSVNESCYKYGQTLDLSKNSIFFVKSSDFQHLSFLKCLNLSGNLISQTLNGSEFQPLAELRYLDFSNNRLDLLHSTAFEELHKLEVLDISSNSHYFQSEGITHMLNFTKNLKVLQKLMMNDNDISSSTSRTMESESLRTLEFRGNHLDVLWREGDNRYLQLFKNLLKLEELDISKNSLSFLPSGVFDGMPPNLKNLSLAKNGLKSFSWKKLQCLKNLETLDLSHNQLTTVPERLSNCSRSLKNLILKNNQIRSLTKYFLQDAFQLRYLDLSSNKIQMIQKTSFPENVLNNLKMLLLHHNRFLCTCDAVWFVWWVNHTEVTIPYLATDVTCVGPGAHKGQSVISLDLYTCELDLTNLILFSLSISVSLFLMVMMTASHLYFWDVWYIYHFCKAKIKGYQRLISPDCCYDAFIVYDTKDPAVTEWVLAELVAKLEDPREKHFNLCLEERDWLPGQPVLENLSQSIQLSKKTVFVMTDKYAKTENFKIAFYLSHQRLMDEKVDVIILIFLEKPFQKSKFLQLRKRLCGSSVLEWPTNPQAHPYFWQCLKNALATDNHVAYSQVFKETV
Method: (§1) HEK-Blue™ cells that stably express human TLR7 or TLR8 are used to evaluate the agonistic activity of the compounds on TLR7 or TLR8, which is determined by the induction of the expression of SEAP reporter gene under the control of minimum IFN-β promoter fusion to 5×NF-κB and AP-1 binding sites. The assay is conducted as below:
(§2) HEK-Blue™ hTLR7 (Invivogen, 80,000 cells per well) or HEK-Blue™ hTLR8 (Invivogen, 60,000 cells per well) were added to the 96-well cell culture plate, followed by adding of the test compound. The final concentration of the test compound in the medium ranged from […], and was incubated for 16 to 22 hours. According to the manufacturer's instructions, the HEK-Blue assay reagent Quanti-blue (Invivogen) was used to measure SEAP levels in cell media. Optical density at 650 nm (OD650) was measured by Neo2 multifunction plate reader (Bio-tek). The half effective concentration (EC50) was calculated using GraphPad Prism.

EC50 [µM]	Structure (SMILES)
0.07	CCCC(CCC)Nc1nc(N)nc2ccn(Cc3ccc(C(=O)N4CCN(C)CC4)cc3OC)c(=O)c12 [Compound I-133, 2-amino-4-(heptan-4-ylamino)-6-(2-methoxy-4-(4-methylpiperazine-1-carbonyl)benzyl)pyrido[4,3-d]pyrimidin-5(6H)-one]
0.082	CCCCNc1nc(N)nc2ccn(Cc3ccc(C(=O)N4CCN(C)CC4)cc3)c(=O)c12 [Compound I-63, 2-amino-4-(butylamino)-6-(4-(4-methylpiperazine-1-carbonyl)benzyl)pyrido[4,3-d]pyrimidin-5(6H)-one]
0.065	CCC[C@@H](CC)Nc1nc(N)nc2ccn(Cc3ccc(C(=O)N4CCNCC4)cc3)c(=O)c12 [Compound I-137, (R)-2-amino-4-(hexan-3-ylamino)-6-(4-(piperazine-1-carbonyl)benzyl)pyrido[4,3-d]pyrimidin-5(6H)-one]
0.067	CCCCNc1nc(N)nc2ccn(Cc3ccc(CN4CCCC4)nc3OC)c(=O)c12 [Compound I-64, 2-amino-4-(butylamino)-6-((2-methoxy-6-(pyrrolidin-1-ylmethyl)pyridin-3-yl)methyl)pyrido[4,3-d]pyrimidin-5(6H)-one]
0.07	CCCC(CCC)Nc1nc(N)nc2ccn(Cc3ccc(C(=O)N4CCN(CCO)CC4)cc3OC)c(=O)c12 [Compound I-136, 2-amino-4-(heptan-4-ylamino)-6-(4-(4-(2-hydroxyethyl)piperazine-1-carbonyl)-2-methoxybenzyl)pyrido[4,3-d]pyrimidin-5(6H)-one]
0.086	CCCC(CCC)Nc1nc(N)nc2ccn(Cc3ccc(C(=O)N4CCN(C)CC4)cc3)c(=O)c12 [Compound I-114, 2-amino-4-(heptan-4-ylamino)-6-(4-(4-methylpiperazine-1-carbonyl)benzyl)pyrido[4,3-d]pyrimidin-5(6H)-one]

molecular target: T2, human TLR8 (Homo sapiens, UniProt Q9NR97); assay: HEK-Blue hTLR8 SEAP reporter gene agonist assay; assay type: cell-based; conditions: HEK-Blue hTLR8 cells, 16 to 22 hours incubation
T2 construct: host or cells: HEK-Blue hTLR8 (HEK293-derived reporter cells)
T2 sequence (Q9NR97 27-1041): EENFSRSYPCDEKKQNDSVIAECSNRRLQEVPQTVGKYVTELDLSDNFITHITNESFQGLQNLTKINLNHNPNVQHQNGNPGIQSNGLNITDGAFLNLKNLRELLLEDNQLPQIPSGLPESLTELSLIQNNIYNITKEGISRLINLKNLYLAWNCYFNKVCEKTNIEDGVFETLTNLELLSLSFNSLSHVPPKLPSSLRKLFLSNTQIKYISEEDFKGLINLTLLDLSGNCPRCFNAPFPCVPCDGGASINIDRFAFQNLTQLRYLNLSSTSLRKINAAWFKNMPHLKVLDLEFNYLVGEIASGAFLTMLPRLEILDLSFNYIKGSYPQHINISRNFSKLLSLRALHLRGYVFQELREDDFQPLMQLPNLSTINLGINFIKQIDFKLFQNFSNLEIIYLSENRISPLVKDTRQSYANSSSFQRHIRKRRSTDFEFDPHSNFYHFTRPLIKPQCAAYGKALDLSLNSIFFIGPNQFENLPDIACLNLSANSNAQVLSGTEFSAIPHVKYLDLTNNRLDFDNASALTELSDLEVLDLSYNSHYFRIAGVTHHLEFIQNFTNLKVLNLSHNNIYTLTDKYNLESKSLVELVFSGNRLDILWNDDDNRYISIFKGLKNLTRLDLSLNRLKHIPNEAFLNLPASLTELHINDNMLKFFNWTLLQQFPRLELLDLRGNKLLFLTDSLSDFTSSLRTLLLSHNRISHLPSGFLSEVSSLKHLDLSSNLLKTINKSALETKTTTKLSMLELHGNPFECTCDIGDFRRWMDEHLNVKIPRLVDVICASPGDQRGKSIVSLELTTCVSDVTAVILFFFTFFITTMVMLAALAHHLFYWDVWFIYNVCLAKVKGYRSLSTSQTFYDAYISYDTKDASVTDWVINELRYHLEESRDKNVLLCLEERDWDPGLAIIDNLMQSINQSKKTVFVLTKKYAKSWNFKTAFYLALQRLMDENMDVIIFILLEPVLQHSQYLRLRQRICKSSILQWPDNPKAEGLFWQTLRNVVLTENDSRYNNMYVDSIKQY
Method: as §1, §2

EC50 [µM]	Structure (SMILES)
0.07	CCC[C@@H](CO)Nc1nc(N)nc2ccn(Cc3ccc(CN(C)CCN)cc3OC)c(=O)c12 [Compound I-208]
0.03	CCC[C@@H](C)Nc1nc(N)nc2ccn(Cc3ccc(CN(CCC)CCO)cc3)c(=O)c12 [Compound I-140, (R)-2-amino-6-(4-(((2-hydroxyethyl)(propyl)amino)methyl)benzyl)-4-(pentan-2-ylamino)pyrido[4,3-d]pyrimidin-5(6H)-one]
0.097	CCCC(C)Nc1nc(N)nc2ccn(Cc3ccc(CN4CCCC4)cc3)c(=O)c12 (stereo not shown) [Compound I-12, 2-amino-4-(pentan-2-ylamino)-6-(4-(pyrrolidin-1-ylmethyl)benzyl)pyrido[4,3-d]pyrimidin-5(6H)-one]
0.009	CCCCCCCCCCCCCCCC(=O)OC[C@H](CCC)Nc1nc(N)nc2ccn(Cc3ccc(CN4CCN(C)CC4)cc3OC)c(=O)c12 [Compound I-222]
0.051	COCCNc1nc(N)nc2ccn(Cc3ccc(CN4CCCC4)cc3)c(=O)c12 [Compound I-21, 2-amino-4-((2-methoxyethyl)amino)-6-(4-(pyrrolidin-1-ylmethyl)benzyl)pyrido[4,3-d]pyrimidin-5(6H)-one]
0.045	CCCCNc1nc(N)nc2ccn(Cc3ccc(CNCCO)cc3)c(=O)c12 [Compound I-34, 2-amino-4-(butylamino)-6-(4-(((2-hydroxyethyl)amino)methyl)benzyl)pyrido[4,3-d]pyrimidin-5(6H)-one]
0.018	CCC[C@@H](CO)Nc1nc(N)nc2ccn(Cc3ccc(CN4CCNCC4)cc3OC)c(=O)c12 [Compound I-191, (S)-2-amino-4-((1-hydroxypentan-2-yl)amino)-6-(2-methoxy-4-(piperazin-1-ylmethyl)benzyl)pyrido[4,3-d]pyrimidin-5(6H)-one]
0.03	CCCCCCCCCC(=O)OC[C@H](CCC)Nc1nc(N)nc2ccn(Cc3ccc(CN4CCN(C)CC4)cc3OC)c(=O)c12 [Compound I-221]
0.051	CCCCNc1nc(N)nc2ccn(Cc3ccc(CN(CCO)CCO)cc3)c(=O)c12 [Compound I-50, 2-amino-6-(4-((bis(2-hydroxyethyl)amino)methyl)benzyl)-4-(butylamino)pyrido[4,3-d]pyrimidin-5(6H)-one]
0.029	CCC[C@@H](C)Nc1nc(N)nc2ccn(Cc3ccc(CN4CC5(COC5)C4)nc3OC)c(=O)c12 [Compound I-188, (R)-6-((6-((2-oxa-6-azaspiro[3.3]heptan-6-yl)methyl)-2-methoxypyridin-3-yl)methyl)-2-amino-4-(pentan-2-ylamino)pyrido[4,3-d]pyrimidin-5(6H)-one]
0.077	CCCCNc1nc(N)nc2ccn(Cc3cnc(CN4CCCC4)cn3)c(=O)c12 [Compound I-129, 2-amino-4-(butylamino)-6-((5-(pyrrolidin-1-ylmethyl)pyrazin-2-yl)methyl)pyrido[4,3-d]pyrimidin-5(6H)-one]
0.095	CCCCNc1nc(N)nc2ccn(Cc3ccc(CN4CCCC4)c(F)c3)c(=O)c12 [Compound I-27, 2-amino-4-(butylamino)-6-(3-fluoro-4-(pyrrolidin-1-ylmethyl)benzyl)pyrido[4,3-d]pyrimidin-5(6H)-one]
0.055	CCCCNc1nc(N)nc2ccn(Cc3ccc(C(=O)N4CC5CC(C4)N5)cc3)c(=O)c12 [Compound I-19, 6-(4-(3,6-diazabicyclo[3.1.1]heptane-3-carbonyl)benzyl)-2-amino-4-(butylamino)pyri do[4,3-d]pyrimidin-5(6H)-one]
0.066	CCCCNc1nc(N)nc2ccn(Cc3ccc(CN4CCCC4)cn3)c(=O)c12 [Compound I-128, 2-amino-4-(butylamino)-6-((5-(pyrrolidin-1-ylmethyl)pyridin-2-yl)methyl)pyrido[4,3-d]pyrimidin-5(6H)-one]
0.044	CCC[C@@H](CO)Nc1nc(N)nc2ccn(Cc3ccc(CN4CCN(CCN)CC4)cc3OC)c(=O)c12 [Compound I-207, (S)-2-amino-6-(4-((4-(2-aminoethyl)piperazin-1-yl)methyl)-2-methoxybenzyl)-4-((1-hydroxypentan-2-yl)amino)pyrido[4,3-d]pyrimidin-5(6H)-one]
0.073	CCCCOC(=O)OC[C@H](CCC)Nc1nc(N)nc2ccn(Cc3ccc(CN4CCN(C)CC4)cc3OC)c(=O)c12 [Compound I-226]
